Values quoted from earlier work in US12102684B2, “Methods of making and using polyphenols complexed with a protein, peptide, amino acid, polysaccharide, disaccharide, or monosaccharide” (priority 2016, dated 2024).

Key:
[1] = previous studies

| solubility in organic solvents (organic solvents (methanol, acetone, DMSO, etc.)) | solubility in water | oral clearance [1] [mL/min/kg] | Structure (SMILES) |
| --- | --- | --- | --- |
| 16-50 grams/liter | 0.03 grams/liter |  | Oc1ccc(/C=C/c2cc(O)cc(O)c2)cc1 [Resveratrol, 3,5,4′-trihydroxy-trans-stilbene] |
|  | very poor | 1808 | COc1cc(/C=C/C(=O)CC(=O)/C=C/c2ccc(O)c(OC)c2)ccc1O [curcumin, (1E,6E)-1,7-bis(4hydroxy-3-methoxyphenyl)hepta-1,6-diene-3,5-dione] |

| Structure (SMILES) | solubility in organic solvents (organic solvents (methanol, acetone, DMSO, etc.)) | solubility in water | oral clearance [1] [mL/min/kg] |
| --- | --- | --- | --- |
| COc1cc([C@@H]2Oc3c(O)cc([C@H]4Oc5cc(O)cc(O)c5C(=O)[C@@H]4O)cc3[C@H]2CO)ccc1O [Silychristin] |  | water insoluble |  |
